Laboratory results: patent publication US20070031511A1, “Method of treatment” (priority 2003, published 2007)
Where two headings read alike, the source gives them in different places. Where a SMILES comes first, the peptide text is derived from it. Where no end group is shown, it is not given here. [ ]: non-standard residue; d: D form. pGlu = O=C1CC[C@@H](C(=O)O)N1

Tests used:
IMGE-5 cells [1] = experiment: IMGE-5 cell proliferation, MTT assay; format: cell-based, mice; conditions: MTT assay, peptides shown at 1 nM (FIGS. 7A, 8A)
Procedure: (§1) The IMGE-5 cell line was established from the gastric mucosa of mice transgenic for a temperature-sensitive mutant of the SV40 large T antigen (Hollande et al, 2001). IMGE-5 cells were generally grown at 33° C. in DMEM containing 1 unit/ml γ-interferon, 10% FBS, 100 U/ml penicillin, and 100 μg/ml streptomycin (permissive conditions). For all experiments, cells were transferred to 39° C. in the same medium without […] (non-permissive conditions), where they display differentiated characteristics such as expression of functional adherens and tight junctions. All experiments have been performed on cells between passages 20 and 35.
A colorimetric assay was used to measure cell proliferation. Briefly, IMGE-5 cells were seeded in a 96-well plate at a density of 10^4 cells/well in DMEM containing 10% FBS and antibiotics. The following day, cells were synchronized in Go by incubation for 24 h in the same medium lacking FBS. The medium was replaced the next day with fresh medium containing 1% FBS and antibiotics and the peptides under investigation, and incubation was continued for 72 h. 15 μl of 5 mg/ml 3-(4,5-dimethylthiazol-2-yl)-2-5-diphenyltetrazolium bromide (MTT, Sigma, St Louis Mo.) was added per well, and the plate was incubated at 37° C. for 4 h before the medium was discarded. 200 μl 40 mM HCl in isopropanol was added to lyse the cells, and the absorbance at 570 nm was read on a BioRad Model 550 Microplate reader (BioRad, Hercules, Calif.).

IMGE-5 cells [2] = experiment: Wound healing / cell migration assay; format: cell-based, mice; conditions: wound healing assay, fragments and mutants shown at 1 nM (FIGS. 7B, 8B)
Procedure: as §1
In order to assess the effects of different stimuli on cell migration, wound healing experiments were performed as detailed elsewhere (Hollande et al, 1997). In brief, IMGE-5 cells were grown in 12-well plates in DMEM at 33° C. until they reached 80% confluence, then shifted to 39° C. and starved of serum for 24 h. The confluent monolayer was wounded using a 20 μl-pipette tip, and cells were then washed 3 times with phosphate-buffered saline (PBS: 2.7 mM KCl, 1.5 MM KH2PO4, 142 mM NaCl, and 10 mM Na2HPO4, pH 6.95) and treated with or without different compounds in DMEM with antibiotics. Morphology and migration of cells were observed and photographed immediately, and after treatment for 17 and 24 h. Wound width was measured at six different positions on the 24 h photographs, and averages calculated.

[3] = pH 4.0; Ref. 8 given in table; read-out: Kd (μM), apparent dissociation constant for ferric ions; cited from earlier work
[4] = read-out: Apparent first dissociation constant of complex with ferric ions, cited from earlier work
[5] = target: T1, recombinant human progastrin6-80 (Homo sapiens, UniProt P01350); experiment: Competition of metal ions with 59Fe3+ for binding to progastrin6-80; conditions: metal ions 100 μM, 59Fe3+ 10 μM, progastrin6-80 5.6 μM
T1 construct: made in house
T1 sequence (P01350 27-101): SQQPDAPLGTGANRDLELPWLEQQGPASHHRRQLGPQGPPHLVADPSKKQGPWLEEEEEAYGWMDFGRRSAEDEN
Procedure: In order to determine the specificity of the interaction between progastrin and metal ions, the binding of metal ions to recombinant human progastrin6-80 was determined by measuring their ability to compete with radioactive ^59Fe^3+ for binding to the protein by the following methods (Baldwin et al, 2001).
Progastrin6-80 (5.6 μM) in pH 2.8 buffer (10 mM sodium formate, pH 2.8, 100 mM NaCl, 0.005% Tween 20) was incubated for 30 min at 4° C. with ^59Fe^3+ ions (10 μM, 23.6 cpm/pmol) in the presence of several di- and trivalent metal ions (100 μM). Excess radioactivity was removed by overnight dialysis (SpectraPor dialysis tubing, molecular weight cut-off 3,500, Spectrum Labs., Rancho Dominguez, Calif.) at 4° C. against pH 4.0 buffer (10 mM sodium acetate, pH 4.0, 100 mM NaCl, 0.005% Tween 20), containing 1 µM EDTA. The radioactivity associated with progastrin6-80 was determined by counting aliquots of the internal and external solutions in a γ-counter (LKB-Wallac, Turku, Finland).

[6] = Quenching of peptide tryptophan fluorescence by ferric ions (stoichiometry, apparent Kd); format: binding; conditions: 10 mM sodium acetate pH 4.0, 100 mM NaCl, 0.005% Tween 20; mean ± S.E.; read-out: Kd (μM), apparent dissociation constant for ferric ions
Procedure: The tryptophan fluorescence of peptide solutions was measured in 3 mL quartz cuvettes thermostated at […], with a Spex Fluorolog-2 spectrofluorimeter (Spex Industries, Edison, N.J.), with the excitation and emission wavelengths set at 290 and 345 nm, respectively. The quenching of tryptophan fluorescence induced by the binding of metal ions was used to calculate the fraction of binding sites occupied, fa: fa=(yf−y)/(yf−yb) where y is the fluorescence signal at a given concentration of metal ions and yb and yf are the signals when the binding sites are fully occupied and unoccupied, respectively (Winzor et al, 1995). The stoichiometry, p, and apparent dissociation constant, Kd, were then obtained, using the program Sigmastat (Jandel Scientific, San Rafael, Calif.), from the intercept and slope of a linear regression of the data transformed as described by Winzor and Sawyer (1995) in terms of the equation Cs/fa=pCa+Kd/(1−fa) where Cs is the total concentration of metal ions, and Ca is the total concentration of glycine-extended gastrin17. For the bismuth binding studies, the data was fitted by non-linear regression with the program Sigmaplot (Jandel Scientific, San Rafael, Calif.) to the equations for models with one binding site or two binding sites with identical affinities: fa=x/(Kd1+x) or to the model with two binding sites with different affinities: fa=(Kd1·x+Kd2·x+2x^2)/2(Kd1·Kd2+Kd1·x+Kd2·x+x^2) where x is the concentration of free metal ions, Kd1 is the first site dissociation constant and Kd2 is the second site dissociation constant. For the one-site model the value of x at any given total concentration of metal ions was obtained by exact solution of the appropriate quadratic (Malby et al, 2001). For the two-site models the value of x was obtained by an iterative Newton-Raphson procedure (Linse et al, 1991). Absorption Spectroscopy
The tryptophan fluorescence of progastrin6-80, glycine-extended gastrin17 and related peptides was measured in the presence of increasing concentrations of ferric ions in 10 mM sodium acetate, pH 4.0, 100 mM NaCl, 0.005% Tween 20. […] Values from the indicated number of independent experiments were combined to obtain the mean values (±S.E.) presented above. No binding of ferric ions to Ggly1-4 or Ggly12-18 was observed.
The tryptophan fluorescence of amidated gastrin17 and related peptides was measured in the presence of increasing concentrations of ferric ions at pH 4.0 (8). Values of the stoichiometry and the apparent dissociation constant (Kd) were obtained from linear transformations of the data presented in FIG. 20A by least squares fitting. Values from the indicated number of independent experiments were combined to obtain the mean values (±S.E.) presented above.

rectal mucosa = experiment: Proliferation in the rectal mucosa of rectally defunctioned rats (metaphase-arrested cells); format: in vivo; conditions: infused intraperitoneally 2.5 nmol/kg/hr, 4 weeks
Procedure: DFO (400 mg/kg) was administered intraperitoneally thrice weekly, and bismuth ions were administered as colloidal bismuth subcitrate (135 mg/kg/12 hours) by oral gavage 5 days per week. After 4 weeks, the rats were injected with vincristine to arrest cycling cells in metaphase, and sacrificed 3 hrs later. Crypt heights in the rectal mucosa, and the number of metaphase arrested cells per crypt, were then determined microscopically.

[7] = Solubility of peptides in NMR sample preparation; format: physicochemical; conditions: NMR sample conditions, pH 5.3
Procedure: For the subsequent experiments, samples were prepared for NMR spectroscopy by dissolving 2.5 mg of peptide in 0.6 ml of 10% DMSO/10% ^2H2O/80% H2O at 278 K. The pH was adjusted with small amounts of 1M NaO^2H or ^2HCl to pH 5.3. ^1H chemical shifts were referenced to 2,2-dimethyl-2-silapenthane-5-sulfonate at 0 ppm via the chemical shift of the H2O resonance or an impurity at 0.15 ppm. NMR spectra were recorded on Bruker DRX-600 and AMX-500 instruments, as described previously (Barnham et al, 1999).
The peptides LE5AYG, LE5A, E5AY and E5A (approximately 2 mM) were dissolved in H2O with 5 or 10% ^2H2O. […] Sequence-specific ^1H NMR resonance assignments were made from two-dimensional nuclear Overhauser enhancement spectroscopy (NOESY) and total correlation spectroscopy (TOCSY).

Kd [6]	Compound	Stimulation of IMGE-5 cell proliferation (IMGE-5 cells [1])	Stimulation of IMGE-5 cell migration (IMGE-5 cells [2])	also measured
–	LE5AYGWMDFG (LEEEEEAYGWMDFG; listed as Homo sapiens) [Ggly5-18]	to the same extent as Ggly	to the same extent as Ggly	Stimulation of IMGE-5 cell proliferation (IMGE-5 cells [1]; listed as LE5AYGWMDFG): fully active; Stimulation of IMGE-5 cell migration (IMGE-5 cells [2]; listed as LE5AYGWMDFG): fully active; Kd [3]: 0.58 ± 0.19 µM
–	O=C(O)CN(CC(=O)O)CC(=O)O [nitrilotriacetic acid]	–	–	Kd ([4]; pH 4.0): 0.83 µM; Kd ([4]; pH 7.6): 0.00019 µM
–	[Fe+2] [ferrous ions]	–	–	Ability to compete with 59Fe3+ for binding to progastrin6-80 [5]: able to compete effectively
0.2 ± 0.01 µM	GglyE7A: Ggly mutant, Glu7 replaced by Ala, SEQ ID NO:11 ([pGlu]GPWLEAEEEAYGWMDFG; ends and bridges not checked)	inactive	inactive	Stimulation of rectal mucosal proliferation (rectal mucosa): able to stimulate mucosal proliferation as well as Ggly
–	[Fe+3] [ferric ions]	–	–	Ability to compete with 59Fe3+ for binding to progastrin6-80 [5]: able to compete effectively
1.2 ± 0.11 µM	CSCC[C@H](NC(=O)[C@H](Cc1c[nH]c2ccccc12)NC(=O)CNC(=O)[C@H](Cc1ccc(O)cc1)NC(=O)[C@H](C)NC(=O)[C@H](C)NC(=O)[C@H](C)NC(=O)[C@H](C)NC(=O)[C@H](C)NC(=O)[C@H](C)NC(=O)[C@H](CC(C)C)NC(=O)[C@H](Cc1c[nH]c2ccccc12)NC(=O)[C@@H]1CCCN1C(=O)CNC(=O)[C@@H]1CCC(=O)N1)C(=O)N[C@@H](CC(=O)O)C(=O)N[C@@H](Cc1ccccc1)C(=O)NCC(=O)O [GglyE6-10A] ([pGlu]GPWLAAAAAAYGWMDFG-OH)	inactive	inactive	Solubility [7]: Poor solubility
0.37 ± 0.07 µM	CSCC[C@H](NC(=O)[C@H](Cc1c[nH]c2ccccc12)NC(=O)CNC(=O)[C@H](Cc1ccc(O)cc1)NC(=O)[C@H](C)NC(=O)[C@H](C)NC(=O)[C@H](C)NC(=O)[C@H](C)NC(=O)[C@H](CCC(=O)O)NC(=O)[C@H](CCC(=O)O)NC(=O)[C@H](CC(C)C)NC(=O)[C@H](Cc1c[nH]c2ccccc12)NC(=O)[C@@H]1CCCN1C(=O)CNC(=O)[C@@H]1CCC(=O)N1)C(=O)N[C@@H](CC(=O)O)C(=O)N[C@@H](Cc1ccccc1)C(=O)NCC(=O)O [GglyE8-10A] ([pGlu]GPWLEEAAAAYGWMDFG-OH)	active in proliferation assays, although less so than Ggly	–	Solubility [7]: Poor solubility
